Laboratory results: the supplement of paper PMC10307832

Compound: CN1CCN(CC1)C2=CC(=C(C=C2)NC3=NC(=C(S3)C(=O)C4=C(C=CC=C4Cl)Cl)N)OC [XMD14-99] + NC(=O)Nc1cc(-c2cccc(F)c2)sc1C(=O)N[C@H]1CCCNC1 [AZD7762] (partner 0.2 µM)
Test: relative viability (nuclei count vs DMSO), 5 days (fraction); higher = more cells survive
Summary of the method: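 Lung cancer cell lines, seeded in 1536-well plates, were treated the following day by pin tool with a single drug or with five library-drug doses (not always all listed) in √10 steps on top of a fixed anchor-drug dose. Cells were fixed and nuclei stained in one step after 5 days, and nuclei were counted. Relative viability is the nuclei count for treated wells divided by that for vehicle wells, reported as medians of duplicate plates.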

Cell Line | relative viability (first compound 0.08 µM) | relative viability (first compound 0.8 µM) | relative viability (first compound 2.53 µM) | relative viability (first compound 8 µM)
201T | 0.529 | 0.598 | 0.583 | 0.607
A-427 | 0.692 | 0.621 | 0.496 | 0.454
ABC-1 | 0.859 | 1.03 | 0.865 | 0.762
BEN | 0.594 | 0.736 | 0.596 | 0.514
CAL-12T | 0.65 | 0.549 | 0.671 | 0.573
ChaGo-K-1 | 0.844 | 0.901 | 0.826 | 0.825
EKVX | 0.654 | 0.692 | 0.651 | 0.522
EMC-BAC-2 | 1.15 | 1.11 | 1.08 | 0.835
EPLC-272H | 0.165 | 0.207 | 0.254 | 0.433
H3255 | 0.854 | 0.777 | 0.75 | 0.586
HARA | 0.334 | 0.261 | 0.237 | 0.217
HCC-15 | 1.22 | 1.17 | 1.21 | 1.04
HCC-44 | 1.05 | 1.04 | 0.993 | 0.981
HCC-78 | 0.567 | 0.565 | 0.749 | 0.404
HCC-366 | 0.237 | 0.215 | 0.251 | 0.187
HCC-827 | 0.227 | 0.202 | 0.203 | 0.191
HOP-62 | 0.489 | 0.57 | 0.726 | 0.513
LC-2-ad | 0.869 | 0.872 | 0.889 | 0.735
LCLC-97TM1 | 0.346 | 0.293 | 0.303 | 0.227
LCLC-103H | 0.804 | 0.837 | 0.781 | 0.681
LK-2 | 0.375 | 0.41 | 0.354 | 0.235

Cell Line | relative viability (first compound 0.08 µM) | relative viability (first compound 0.8 µM) | relative viability (first compound 2.53 µM) | relative viability (first compound 8 µM)
LOU-NH91 | 0.785 | 0.814 | 0.714 | 0.675
LU99A | 0.3 | 0.227 | 0.31 | 0.235
LXF-289 | 1.14 | 0.969 | 1.12 | 0.98
NCI-H23 | 0.284 | 0.312 | 0.25 | 0.188
NCI-H322M | 0.593 | 0.542 | 0.583 | 0.509
NCI-H358 | 0.487 | 0.593 | 0.461 | 0.455
NCI-H441 | 0.939 | 1.2 | 1.3 | 0.793
NCI-H460 | 0.619 | 0.601 | 0.634 | 0.453
NCI-H522 | 0.693 | 1.01 | 0.806 | 0.924
NCI-H596 | 1.16 | 1.01 | 1.29 | 1.15
NCI-H647 | 0.506 | 0.472 | 0.433 | 0.335
NCI-H650 | 1.05 | 1.06 | 1.16 | 0.851
NCI-H727 | 0.582 | 0.598 | 0.506 | 0.578
NCI-H838 | 0.91 | 0.952 | 0.975 | 0.897
NCI-H1355 | 0.85 | 0.625 | 0.652 | 0.572
NCI-H1395 | 0.387 | 0.462 | 0.363 | 0.38
NCI-H1437 | 1.18 | 1.05 | 0.991 | 0.719
NCI-H1648 | 0.715 | 0.625 | 0.672 | 0.581
NCI-H1651 | 0.429 | 0.466 | 0.444 | 0.46
NCI-H1666 | 0.858 | 0.801 | 0.731 | 0.736
NCI-H1703 | 0.0933 | 0.124 | 0.143 | 0.118

Cell Line | relative viability (first compound 0.08 µM) | relative viability (first compound 0.8 µM) | relative viability (first compound 2.53 µM) | relative viability (first compound 8 µM)
NCI-H1734 | 0.487 | 0.513 | 0.459 | 0.51
NCI-H1755 | 0.44 | 0.366 | 0.467 | 0.357
NCI-H1792 | 0.822 | 0.556 | 0.599 | 0.305
NCI-H1793 | 0.512 | 0.298 | 0.389 | 0.298
NCI-H1915 | 0.668 | 0.676 | 0.701 | 0.629
NCI-H1944 | 0.501 | 0.539 | 0.436 | 0.328
NCI-H1975 | 0.743 | 0.745 | 0.717 | 0.569
NCI-H1993 | 0.879 | 0.702 | 0.82 | 0.593
NCI-H2085 | 0.95 | 0.914 | 0.881 | 0.72
NCI-H2087 | 1.26 | 1.14 | 1.04 | 0.764
NCI-H2126 | 0.979 | 0.984 | 1.05 | 0.942
NCI-H2170 | 0.787 | 0.928 | 0.875 | 0.702
NCI-H2342 | 0.55 | 0.502 | 0.583 | 0.458
NCI-H2347 | 0.814 | 0.725 | 0.673 | 0.505
NCI-H2405 | 0.745 | 0.809 | 0.586 | 0.479
NCI-H3122 | 0.978 | 0.893 | 0.936 | 0.555
PC-3 [JPC-3] | 0.905 | 0.789 | 0.681 | 0.553
PC-14 | 0.37 | 0.416 | 0.36 | 0.309
RERF-LC-KJ | 0.902 | 1 | 0.86 | 0.794
SW 900 | 0.633 | 0.681 | 0.71 | 0.548
